Test results as given in paper PMC9578474, “In vitro and in silico β-lactamase inhibitory properties and phytochemical profile of Ocimum basilicum cultivated in central delta of Egypt” (Pharmaceutical Biology, 2022).

Tested on: T1, CTX-M β-lactamase (ESBL)
T1 construct: gene blaCTX-M
Assay: nitrocefin hydrolysis colorimetric assay (kit MAK222) with cell-free lysate of ESBL-producing E. coli
Assay type: biochemical

SMILES	Value clavulanic acid [µg/mL]	Value methyl cinnamate [µg/mL]
O=C(O)[C@H]1/C(=C/CO)O[C@@H]2CC(=O)N21 [clavulanic acid]	8.1223	–
COC(=O)/C=C/c1ccccc1 [Methyl cinnamate]	–	11.6008
